Measurements taken from US20210261570A1, “ANTIBIOTIC RESISTANCE BREAKERS” (KING'S COLLEGE LONDON, priority 2017, published 2021).
Values after ≈ are worked out from the molar mass of the structure shown. Values joined by “and” are separate entries in the source; they are usually repeats but may differ in a detail not shown here. Equal values may be shown once. Read-outs that look alike come from different tables or passages of the source.

Key:
[1] = system: Neisseria gonorrhoeae strains; type: cell-based
Text: Untreated controls and blank wells were included.

Safetyscreen44 panel [2] = molecular target: Safetyscreen44 panel (Homo sapiens, UniProt P21728); settings: D1 (h) (antagonist radioligand)
Chain of Safetyscreen44 panel (Homo sapiens, UniProt P21728) (P21728 whole entry): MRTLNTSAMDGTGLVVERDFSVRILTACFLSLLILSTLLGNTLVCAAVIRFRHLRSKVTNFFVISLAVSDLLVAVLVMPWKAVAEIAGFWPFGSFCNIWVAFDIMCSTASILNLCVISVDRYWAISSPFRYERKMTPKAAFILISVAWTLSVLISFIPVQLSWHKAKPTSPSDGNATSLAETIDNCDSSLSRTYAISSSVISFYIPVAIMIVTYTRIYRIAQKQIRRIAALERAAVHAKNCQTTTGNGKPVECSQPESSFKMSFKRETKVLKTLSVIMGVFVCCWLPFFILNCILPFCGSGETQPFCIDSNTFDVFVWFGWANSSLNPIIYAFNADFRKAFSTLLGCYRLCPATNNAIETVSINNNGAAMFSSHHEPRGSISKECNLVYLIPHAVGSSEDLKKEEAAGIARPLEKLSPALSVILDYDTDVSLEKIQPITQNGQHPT

Safetyscreen44 panel [3] = system: Safetyscreen44 panel
[4] = system: Staphylococcus aureus ATCC29213; assay: Murine model of thigh infection (neutropenic ICR mice); settings: for decrease of thigh bacterial burden compared to vehicle group: 8 h and 14 h post infection
Text: 40 Male mice used in these study were supplied by Charles River UK and were specific pathogen free. The strain of mouse used was Hsd:ICR (CD-1®), which is a well characterized outbred strain. Mice were 11-15 g on receipt at Evotec's facility and were allowed to acclimatize for minimum of 7 days prior to infection. Mice were approximately 28 g at the start of the study. Mice were housed in sterile individual ventilated cages exposing animals at all times to HEPA filtered sterile air. Mice had free access to food and water (sterile) and had sterile aspen chip bedding. The room temperature was 22° C.±1° C., with a relative humidity of 50-60% and maximum background noise of 56 dB. Mice were exposed to 12 hour light/dark cycles with dawn/dusk phases.
All mice were rendered neutropenic by immunosuppression with cyclophosphamide at 150 mg/kg 4 days before infection and then 100 mg/kg 1 day before infection administered by intraperitoneal injection. The immunosuppression regime leads to neutropenia starting 24 hours post administration of the first injection, which continues throughout the study. Mice were infected approximately 24 hours after the second dose of immunosuppressive agent.
Staphylococcus aureus ATCC29213 was used for the study.
Whilst still under anaesthesia mice were administered a single dose of buprenorphine (0.03 mg/kg) subcutaneously for pain relief.
Test articles and comparator were prepared in stock solutions at 10× concentration as described in Table 20. The stock solutions were prepared in aliquots (1 aliquot per time of dosing) and frozen at −20° C. The solutions were thawed and then diluted in water just before dosing to obtain the appropriate concentration of 5 mg/mL or 2 mg/mL for oral administration at 10 mL/kg of the dose of 50 mg/kg or 20 mg/kg respectively (Table 20). 10% DMSO in water was used as the vehicle
After sacrifice of animal, both posterior thighs were removed, weighed, then homogenised in 2 mL PBS using a Precellys bead beater and the homogenates individually quantitatively cultured on CLED agar to determine the bacterial burdens.
The data from the culture burdens were analysed using appropriate non-parametric statistical models (Kruskal-Wallis using Conover-Inman to make all pairwise comparisons between groups) with StatsDirect software v. 2.7.8., and compared to pre-treatment and vehicle controls.

Structure (SMILES): C[C@H]1COc2c(N3CC[C@@H](Nc4ncccn4)C3)c(F)cc3c(=O)c(C(=O)O)cn1c23 [KSN-82-L22]
- MIC ([1]; strain FDA-CDC AR-BANK#0196, resistance CIP-R PEN-R TET-R): 2 µg/mL (≈ 4.7 µM)
- MIC ([1]; strain FDA-CDC AR-BANK#0197, resistance CIP-R PEN-I TET-I): 2 µg/mL (≈ 4.7 µM)
- MIC ([1]; strain FDA-CDC AR-BANK#0198, resistance CIP-R PEN-R TET-R): 2 µg/mL (≈ 4.7 µM)
- MIC ([1]; strain FDA-CDC AR-BANK#0199, resistance CIP-S PEN-R TET-R): ≤0.03125 µg/mL
- MIC ([1]; strain FDA-CDC AR-BANK#0200, resistance CIP-R PEN-R TET-R): 2 µg/mL (≈ 4.7 µM)
- MIC ([1]; strain FDA-CDC AR-BANK#0201, resistance CIP-R PEN-R TET-R): 2 µg/mL (≈ 4.7 µM)
- MIC ([1]; strain FDA-CDC AR-BANK#0202, resistance CIP-S PEN-S TET-I): ≤0.03125 µg/mL
- MIC ([1]; strain FDA-CDC AR-BANK#0203, resistance CIP-R PEN-R TET-R): 2 µg/mL (≈ 4.7 µM)
- MIC ([1]; strain FDA-CDC AR-BANK#0204, resistance CIP-R PEN-I TET-R): 2 µg/mL (≈ 4.7 µM)
- MIC ([1]; strain FDA-CDC AR-BANK#0205, resistance CIP-R PEN-R TET-R): 2 µg/mL (≈ 4.7 µM)
- MIC ([1]; strain FDA-CDC AR-BANK#0206, resistance CIP-R PEN-R TET-R): 2 µg/mL (≈ 4.7 µM)
- MIC ([1]; strain FDA-CDC AR-BANK#0207, resistance CIP-R PEN-R TET-R): 2 µg/mL (≈ 4.7 µM)
- MIC ([1]; strain FDA-CDC AR-BANK#0208, resistance CIP-R PEN-I TET-R): 2 µg/mL (≈ 4.7 µM)
- MIC ([1]; strain FDA-CDC AR-BANK#0209, resistance CIP-R PEN-I TET-R): 2 µg/mL (≈ 4.7 µM)
- MIC ([1]; strain FDA-CDC AR-BANK#0210, resistance CIP-R PEN-I TET-I): 2 µg/mL (≈ 4.7 µM)
- MIC ([1]; strain FDA-CDC AR-BANK#0211, resistance CIP-R PEN-R TET-R): 2 µg/mL (≈ 4.7 µM)
- MIC ([1]; strain FDA-CDC AR-BANK#0212, resistance CIP-R PEN-I TET-R): 2 µg/mL (≈ 4.7 µM)
- MIC ([1]; strain FDA-CDC AR-BANK#0213, resistance CIP-R PEN-I TET-I): 1 µg/mL (≈ 2.35 µM)
- MIC ([1]; strain FDA-CDC AR-BANK#0214, resistance CIP-R PEN-R TET-R): 2 µg/mL (≈ 4.7 µM)
- MIC ([1]; strain NCTC 13817, resistance PEN-R TET-I): 0.5 µg/mL (≈ 1.18 µM)
- MIC ([1]; strain NCTC 13818, resistance CIP-R OFX-R PEN-R TET-R): 2 µg/mL (≈ 4.7 µM)
- MIC ([1]; strain NCTC 13819, resistance FEP-NS CAZ-NS CIP-R OFX-R PEN-R TET-I): 2 µg/mL (≈ 4.7 µM)
- MIC ([1]; strain NCTC 13820, resistance FEP-NS CFM-NS CAZ-NS CRO-NS CIP-R OFX-R PEN-R TET-R): 2 µg/mL (≈ 4.7 µM)
- MIC ([1]; strain NCTC 13821, resistance FEP-NS CFM-NS CAZ-NS CRO-NS CIP-R PEN-I TET-I): 2 µg/mL (≈ 4.7 µM)
- MIC ([1]; strain NCTC 13822, resistance FEP-NS CFM-NS CAZ-NS CIP-R OFX-R PEN-R TET-I): 2 µg/mL (≈ 4.7 µM)
- MIC ([1]; strain TCDC-NG08107, resistance PEN-R CFM-R CPD-R CIP-R): 2 µg/mL (≈ 4.7 µM)
- % inhibition (Safetyscreen44 panel [2]): −15.4033%
- % inhibition (Safetyscreen44 panel [3]; KV channel (antagonist radioligand)): −4.644%
- % inhibition (Safetyscreen44 panel [3]; alpha 2A (h) (antagonist radioligand)): 4.4791%
- Bodyweight raw data, individual mouse ([4]; 20 mg/kg group, day 0 (day of infection)): 29.4 and 27.2 and 30.5 and 29.7
- Bodyweight raw data, individual mouse ([4]; 20 mg/kg group, day 1 post infection): 29.3 and 29.5 and 27.5 and 31.3 and 31.0
- Bodyweight raw data, individual mouse ([4]; 20 mg/kg group, day −1 post infection (before treatment)): 29.1 and 29.2 and 27.3 and 30.2 and 29.8
- Bodyweight raw data, individual mouse ([4]; 20 mg/kg group, day −4 post infection (before treatment)): 28.7 and 30.2 and 26.9 and 29.8 and 29.7
- decrease of thigh bacterial burden compared to vehicle group ([4]; 20 mg/kg/dose oral at 2 h, 18 h post infection): 5 log10 CFU/g and > 5 log10 CFU/g
- Bodyweight raw data, individual mouse ([4]; 50 mg/kg group, day 0 (day of infection)): 28.2 and 27.8 and 29.3 and 26.6 and 25.6
- Bodyweight raw data, individual mouse ([4]; 50 mg/kg group, day 1 post infection): 29 and 28.1 and 30.1 and 26.1 and 26.4
- Bodyweight raw data, individual mouse ([4]; 50 mg/kg group, day −1 post infection (before treatment)): 27.9 and 29.5 and 29.1 and 26.5 and 26.8
- Bodyweight raw data, individual mouse ([4]; 50 mg/kg group, day −4 post infection (before treatment)): 27.8 and 29.2 and 28.9 and 27.0 and 27.9
- decrease of thigh bacterial burden compared to vehicle group ([4]; 50 mg/kg/dose oral at 2 h, 18 h post infection): > 5 log10 CFU/g
- thigh bacterial burden, result in words ([4]; 20 and 50 mg/kg, 18 h post infection): significantly decreased bacterial burden
- body weights following infection ([4]; infected neutropenic mice, treated groups): slightly increased
- Statistic analysis of thigh burden, P versus ML-83-009 20 mg/kg ([4]; substance at 20 mg/kg): P < 0.0001
- Statistic analysis of thigh burden, P versus ML-83-009 50 mg/kg ([4]; substance at 20 mg/kg): P = 0.0002
- Statistic analysis of thigh burden, P versus Pre treatment ([4]; substance at 20 mg/kg): P = 0.0139
- Statistic analysis of thigh burden, P versus Vehicle ([4]; substance at 20 mg/kg): P < 0.0001
- Statistic analysis of thigh burden, P versus ML-83-009 20 mg/kg ([4]; substance at 50 mg/kg): P < 0.0001
- Statistic analysis of thigh burden, P versus ML-83-009 50 mg/kg ([4]; substance at 50 mg/kg): P < 0.0001
- Statistic analysis of thigh burden, P versus Pre treatment ([4]; substance at 50 mg/kg): P = 0.0026
- Statistic analysis of thigh burden, P versus Vehicle ([4]; substance at 50 mg/kg): P < 0.0001
